# Legend:
# Assay type in all cases: physicochemical
# [1] = Release of 1-MCP from 1-MCP/α-CD complex in water, Comparative 1 (mix every 5 min.); details: 50 g 0.14% complex in 250 ml water, swirling 30 seconds every 5 minutes, no pump
# Method: (§1) Fifty grams of 0.14% concentration of 1-MCP/α-CD complex in powdered form was placed into a 1000 ml beaker which also contained 250 ml of water. Into the beaker was also placed a Mini Jet® MN404 submersible pump (available from IPSD, Inc., San Diego, Calif.) which was set at a flow rate of approximately 200 liters/hour. This system was then placed into a 36 liter Plexiglas airtight chamber fitted with a septum for inserting a syringe for gas sampling. The temperature was set at 22° C.
# (§2) After the chamber was sealed, the pump was turned on, creating a fountain-type flow in the beaker. The atmosphere of the chamber was sampled periodically to monitor the release of 1-MCP. The analysis was performed by gas chromatography using a flame ionization detector.
# (§3) This procedure was repeated twice without using the pump for comparison purposes. The first comparison involved mixing the powdered suspension by swirling the contents of the beaker for 30 seconds, every 5 minutes. The second comparison involved using a 2 inch magnetic stir bar and a stir plate instead a pump to constantly mix the suspension.
# [2] = Release of 1-MCP from 1-MCP/α-CD complex in water, Comparative 2 (stir bar); details: 50 g 0.14% complex in 250 ml water, constant magnetic stir bar, no pump
# Method: as §1, §2, §3
# [3] = Release of 1-MCP by gas sparge, large scale, 3.3% complex, conical bottom vessel (Example 4); details: 182 g 3.3% complex in 8 liters water, air 204 liters/hour, 22° C.
# Method: One hundred eighty two grams of a 3.3% concentration of a 1-MCP/α-CD powder complex was placed in an 11 liter plastic vessel having a conical shaped bottom (at a 60 degree angle from horizontal). To the vessel was then added 8 liters of water. The vessel was fitted with a Kordon Mist Air® fine air diffuser (Novalek, Inc., Hayward, Calif.) hooked to a Sensidyne AP060SEEF60C1 air pump (available from Sensidyne Inc., Clearwater, Fla. which was set at a pumping rate of 204 liters of air/hour. The vessel was covered and then fitted with an outlet tube through which all of the vented air passed. The temperature was set at 22° C.
# After the pump was turned on, the exiting air was sampled periodically for 1-MCP content. Analysis was by gas chromatography using a flame ionization detector.
# [4] = Release of 1-MCP by gas sparge, large scale, 0.14% complex (Example 3); details: 3400 g 0.14% complex in 11 liters water, air 400 liters/hour, 22° C.
# Method: Thirty four hundred grams of a 0.14% 1-MCP/α-CD complex in powdered form was placed into a 20 liter plastic vessel containing 11 liters of water and a 56 inch segment of a Bubble Wall air diffuser (IPSD, Inc., San Diego, Calif.). The air diffuser is hooked to a Pro Gold® Profile 400 air pump via flexible connective tubing. The pump was set at the rate of 400 liters of air/hour. The temperature was set at 22° C.
# The vessel was covered and fitted with an outlet tube through which all of the escaping air had to pass. After the pump was turned on, the air exiting the vessel was sampled periodically for 1-MCP content. Analysis was by gas chromatography using a flame detector.
# [5] = Release of 1-MCP from 1-MCP/α-CD complex in water, fountain pump (Example 1); details: 50 g 0.14% 1-MCP/α-CD complex in 250 ml water, pump approx. 200 liters/hour, 22° C.
# Method: as §1, §2
# [6] = Release of 1-MCP by gas sparge, small scale (Example 2); details: 50 g 0.14% complex in 250 ml water, air 100 liters/hour
# Method: Fifty grams of a 0.14% 1-MCP/α-CD complex in powdered form was placed into a 600 ml beaker which contained 250 ml of water. Also present in the beaker is a 10 inch long segment of Bubble Wall air diffusers (IPSD, Inc. San Diego, Calif.). This was connected to a Tetratec® air pump (Tetra Co., Blacksburg, Va.) via flexible connective tubing. The pump was set at a rate of 100 liters/hour. This system was then placed in a 36 liter Plexiglas airtight chamber fitted with a septum for inserting a syringe for gas sampling.
# After the chamber was sealed, the pump was turned on to sparge gas through the aqueous suspension. The air in the chamber was sampled periodically to determine the rate of 1-MCP released. Analysis was performed by gas chromatography using a flame ionization detector.
smiles,measurement,setting,value
"CC1=CC1 [1-MCP, 1-methylcyclopropene]",Percent 1-MCP Released Comparative 1 (mix every 5 min.),[1]; Time 0.17,4%
same,Percent 1-MCP Released Comparative 1 (mix every 5 min.),[1]; Time 0.42,6%
same,Percent 1-MCP Released Comparative 1 (mix every 5 min.),[1]; Time 1.0,9%
same,Percent 1-MCP Released Comparative 1 (mix every 5 min.),[1]; Time 3.0,14%
same,Percent 1-MCP Released Comparative 1 (mix every 5 min.),[1]; Time 4.0,16%
same,Percent 1-MCP Released Comparative 1 (mix every 5 min.),[1]; Time 5.5 (hours),17%
same,Percent 1-MCP Released Comparative 2 (stir bar),[2]; Time 0.17,4%
same,Percent 1-MCP Released Comparative 2 (stir bar),[2]; Time 0.42,6%
same,Percent 1-MCP Released Comparative 2 (stir bar),[2]; Time 1.0,9%
same,Percent 1-MCP Released Comparative 2 (stir bar),[2]; Time 1.5,14%
same,Percent 1-MCP Released Comparative 2 (stir bar),[2]; Time 2.5,21%
same,Percent 1-MCP Released Comparative 2 (stir bar),[2]; Time 5.5 (hours),43%
same,Percent 1-MCP Released (gas sparge),[3]; Time 1.0 hrs.,85%
same,Percent 1-MCP Released (gas sparge),[3]; Time 1.85 hrs.,100%
same,Percent 1-MCP Released (gas sparge),[4]; Time 0.17 hrs.,12%
same,Percent 1-MCP Released (gas sparge),[4]; Time 0.33 hrs.,29%
same,Percent 1-MCP Released (gas sparge),[4]; Time 0.5 hrs.,48%
same,Percent 1-MCP Released (gas sparge),[4]; Time 0.75 hrs.,70%
same,Percent 1-MCP Released (gas sparge),[4]; Time 1.0 hrs.,84%
same,Percent 1-MCP Released (gas sparge),[4]; Time 1.25 hrs.,92%
same,Percent 1-MCP Released (gas sparge),[4]; Time 1.5 hrs.,96%
same,Percent 1-MCP Released (gas sparge),[4]; Time 2.0 hrs.,100%
same,Percent 1-MCP Released Fountain Pump,[5]; Time 0.08,14%
same,Percent 1-MCP Released Fountain Pump,[5]; Time 0.17,43%
same,Percent 1-MCP Released Fountain Pump,[5]; Time 0.42,57%
same,Percent 1-MCP Released Fountain Pump,[5]; Time 1.0,79%
same,Percent 1-MCP Released Fountain Pump,[5]; Time 1.5,86%
same,Percent 1-MCP Released Fountain Pump,[5]; Time 2.5 (hours),90%
same,Percent 1-MCP Released (gas sparge),[6]; Time 0.17 Hrs,42%
same,Percent 1-MCP Released (gas sparge),[6]; Time 0.42 Hrs,58%
same,Percent 1-MCP Released (gas sparge),[6]; Time 0.75 Hrs,75%
same,Percent 1-MCP Released (gas sparge),[6]; Time 1.0 Hrs,83%
same,Percent 1-MCP Released (gas sparge),[6]; Time 2.0 Hrs,92%
